These compounds were tested against T1, Muscarinic acetylcholine receptor M4 (Homo sapiens, UniProt P08173) (assay: Positive allosteric modulation of human muscarinic acetylcholine receptor M4 expressed in CHO-K1 cells coexpressing Galphaqi5 assessed as increase in acetylcholine-induced […] incubated for 16 to 20 hrs measured for 3.5 to 4 mins by FLIPR assay).
T1 sequence (P08173 whole entry): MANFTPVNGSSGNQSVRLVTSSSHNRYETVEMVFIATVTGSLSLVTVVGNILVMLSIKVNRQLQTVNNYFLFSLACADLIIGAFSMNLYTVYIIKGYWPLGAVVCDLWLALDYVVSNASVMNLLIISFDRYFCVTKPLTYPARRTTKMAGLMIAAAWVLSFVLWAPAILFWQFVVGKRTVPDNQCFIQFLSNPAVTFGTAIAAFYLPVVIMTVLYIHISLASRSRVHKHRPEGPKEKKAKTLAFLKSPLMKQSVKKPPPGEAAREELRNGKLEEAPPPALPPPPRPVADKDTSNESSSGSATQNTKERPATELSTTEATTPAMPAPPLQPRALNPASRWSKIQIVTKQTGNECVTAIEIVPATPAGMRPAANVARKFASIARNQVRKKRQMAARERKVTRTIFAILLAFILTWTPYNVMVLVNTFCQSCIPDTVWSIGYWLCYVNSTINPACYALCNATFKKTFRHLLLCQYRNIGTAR
Type: functional, cell-based

Row | EC50 [nM] | Structure (SMILES)
1 | 17 | Cc1cc2c(nc1N1CC[C@@H](Oc3ccc4c(cnn4C)c3)[C@@H](F)C1)CNC2=O
2 | 15 | COc1ccc(OC2CCN(c3nc4oc(=O)[nH]c(=O)c4c(Cl)c3C)CC2)cn1
3 | 25 | COc1ccc(OC2CCN(c3nc(CO)nc(Cl)c3C)CC2)cn1

Source: ChEMBL document CHEMBL4196156, “Allosteric Modulators of the M4 Muscarinic Acetylcholine Receptor” (ACS Med Chem Lett, 2018)
